Source: patent publication US20200190062A1, “HETEROCYCLIC COMPOUND AND PHARMACEUTICAL COMPOSITION COMPRISING SAME” (BEYONDBIO INC., priority 2015, published 2020)
Structures can show the parent of a compound that is named as a salt.

Experiments:
NCI-H23 = experiment: Inhibition of cancer cell proliferation (MTT); format: cell-based, human
Description: (§1) A test was conducted to confirm whether the compounds obtained in the above Examples can inhibit proliferation of human colon carcinoma cell line HCT116, glioblastoma cell lines U-87MG and T98G, neuroblastoma cell lines SH-SYSY and SK-N-SH, and lung cancer cell lines A549 and NCI-H23.
(§2) HCT116, U-87MG, SH-SYSY, SK-N-SH and A549 cells were culured in DMEM medium containing 10% FBS. T98G cells were cultured in MEM medium containing 10% FBS and NCI-H23 cells were cultured in […] medium containing 10% FBS. In order to analyze an inhibition of proliferation, HCT116 cells were dispensed in 2000 cells/well into 96 well plate, and SH-SYSY, SK-N-SH, U-87MG, T98G, A549, and NCI-H23 cells were dispensed in 3000 cells/well into 96 well plate. And then, the cells were cultured at 5% CO2 and 37° C. for 16 hrs to allow the cells to attach to the wells. The compounds of the above Examples were added to each well at a concentration of 0.004, 0.013, 0.04, 0.12, 0.37, 1.1, 3.3, and 10 uM, and the culture volume was adjusted to 100 ul. A control group was treated with dimethylsulfoxide (DMSO) at the same concentration, 0.08%, as used to treat the test compounds. Afterwards, cells were cultured at 5% CO2 and 37° C. for 72 hrs. And then, 10 ul of the solution of MTT (3-(4,5-dimethylthiazol-2-yl)-2,5-diphenyltetrazolium bromide) dissolved in PBS at 5 mg/ml was added to each well to identify viable cells and the cells were cultured for further 2 hrs. The culture solution was removed, 100 ul of DMSO was added to dissolve the formed formazan and then an absorbance was measured at 535 nm. Based on the absorbance of the control cells not treated with the compounds, the amounts of the viable cells according to the concentration of the compounds were calculated. GI50 (growth inhibition 50) value which is the concentration of the compound to inhibit cancer cell proliferation by 50% was calculated using Graphpad Prism 5.0 program.

HCT116 = experiment: Inhibition of cancer cell proliferation (MTT); format: cell-based, human
Description: as §1, §2

T98G = experiment: Inhibition of cancer cell proliferation (MTT); format: cell-based, human
Description: as §1, §2

A549 = experiment: Inhibition of cancer cell proliferation (MTT); format: cell-based, human
Description: as §1, §2

U-87MG = experiment: Inhibition of cancer cell proliferation (MTT); format: cell-based, human
Description: as §1, §2

CDK4/cyclinD1 = target: T1, CDK4/cyclinD1 (Homo sapiens, UniProt P11802); experiment: Inhibition of CDK enzyme activity (ADP-Glo kinase assay); format: biochemical; conditions: 10 uM ATP, Rb protein substrate; read-out: IC50 CDK4/cyclinD
T1 construct: purchased Signalchem (US)
T1 sequence (P11802 whole entry): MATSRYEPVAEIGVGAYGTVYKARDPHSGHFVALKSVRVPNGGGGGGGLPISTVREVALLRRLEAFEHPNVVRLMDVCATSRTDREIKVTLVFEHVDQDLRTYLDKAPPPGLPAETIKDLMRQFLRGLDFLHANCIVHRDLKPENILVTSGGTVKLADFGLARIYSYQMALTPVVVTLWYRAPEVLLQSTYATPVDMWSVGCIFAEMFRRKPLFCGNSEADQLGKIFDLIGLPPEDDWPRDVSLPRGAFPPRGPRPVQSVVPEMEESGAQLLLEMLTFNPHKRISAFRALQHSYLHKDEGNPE
T1 sequence (P24385 whole entry partner): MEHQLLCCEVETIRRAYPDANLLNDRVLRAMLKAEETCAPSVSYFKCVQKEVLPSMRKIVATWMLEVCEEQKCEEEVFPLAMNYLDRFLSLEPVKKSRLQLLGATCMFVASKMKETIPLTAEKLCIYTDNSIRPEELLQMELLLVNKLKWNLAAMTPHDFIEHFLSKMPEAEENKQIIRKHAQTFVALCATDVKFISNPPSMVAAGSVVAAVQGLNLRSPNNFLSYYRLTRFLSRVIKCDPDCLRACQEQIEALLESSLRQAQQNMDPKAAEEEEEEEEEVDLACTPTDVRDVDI
Description: (§3) Test compounds were prepared by dissolving the compounds obtained in the above Examples in dimethylsulfoxide (DMSO) at a concentration of 10 mM. The test compounds were diluted to 200 nM, 50 nM, […], 3.13 nM, 0.78 nM, and 0.2 nM and used in an enzyme reaction.
(§4) CDK enzyme reaction was conducted in a buffer containing 50 mM Tris-HCl (pH 7.5), 10 mM MgCl2, 1 mM EGTA, 1 mM EDTA, and 2 mM DTT. CDK1/cyclinB, CDK2/cylcinE, CDK5/p25, and CDK6/cyclinD3 enzymes commercially available from Merck Millipore were used for CDK1, CDK2, CDK5, and CDK6 enzymes, respectively, and CDK4/cyclinD1 enzyme commercially available from Signalchem (US) was used for CDK4. For CDK1, a reaction proceeded by adding 10 nM CDK1/cyclinB and 0.125 mg/ml histone H1 (Merck Millipore) substrate to the buffer and then adding 10 uM ATP thereto. For CDK2, a reaction was proceeded by adding 10 nM CDK2/cyclinE and 0.125 mg/ml histone H1 substrate to the buffer and then adding 10 uM ATP thereto. For CDK5, a reaction was proceeded by adding 10 nM CDK5/p25 and 0.125 mg/ml histone H1 substrate to the buffer and then adding 10 uM ATP thereto. For CDK4, a reaction was proceeded by adding 20 nM CDK4/cyclinD1 and 0.125 mg/ml Rb protein (Merck Millipore) to the buffer and then adding 10 uM ATP thereto. For CDK6, a reaction was proceeded by adding 50 nM CDK6/cyclinD3 and 0.125 mg/ml histone H1 substrate to the buffer and then adding 10 uM ATP thereto. Each enzyme reaction was incubated at 30° C. for 60 min. Then, the amount of ADP produced was measured using Victor X4 instrument (Perkin Elmer) after generating luminescence using ADP-Glo kinase assay kit (Promega, US). An inhibition effect on each enzyme was represented as a percentage of the luminescence value in the presence of the test compounds relative to the luminescence value without the test compounds. IC50 (nM) is the concentration of the compound to inhibit 50% of the enzyme activity.

CDK6/cyclinD3 = target: T2, CDK6/cyclinD3 (Homo sapiens, UniProt Q00534); experiment: as above; format: biochemical; conditions: 10 uM ATP, histone H1 substrate; read-out: IC50 CDK6/cyclinD
T2 construct: purchased Merck Millipore
T2 sequence (Q00534 whole entry): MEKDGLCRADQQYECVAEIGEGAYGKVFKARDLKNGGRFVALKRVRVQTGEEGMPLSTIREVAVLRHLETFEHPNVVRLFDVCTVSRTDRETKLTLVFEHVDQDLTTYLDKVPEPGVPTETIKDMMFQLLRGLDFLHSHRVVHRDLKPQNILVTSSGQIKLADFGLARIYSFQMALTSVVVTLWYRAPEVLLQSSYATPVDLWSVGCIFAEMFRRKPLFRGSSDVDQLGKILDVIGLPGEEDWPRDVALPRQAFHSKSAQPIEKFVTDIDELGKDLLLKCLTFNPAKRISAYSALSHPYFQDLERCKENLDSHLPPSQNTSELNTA
T2 sequence (P30281 whole entry partner): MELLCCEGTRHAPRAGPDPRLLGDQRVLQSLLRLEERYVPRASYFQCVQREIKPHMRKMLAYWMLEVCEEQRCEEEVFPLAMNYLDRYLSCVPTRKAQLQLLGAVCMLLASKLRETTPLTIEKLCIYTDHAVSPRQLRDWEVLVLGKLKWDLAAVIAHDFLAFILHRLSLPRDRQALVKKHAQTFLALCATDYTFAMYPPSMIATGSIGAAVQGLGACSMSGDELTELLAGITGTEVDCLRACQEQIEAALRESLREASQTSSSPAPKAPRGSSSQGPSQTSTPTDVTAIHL
Description: as §3, §4

CDK2/cyclinE = target: T3, CDK2/cyclinE (Homo sapiens, UniProt P24941); experiment: as above; format: biochemical; conditions: 10 uM ATP, histone H1 substrate
T3 construct: purchased Merck Millipore
Description: as §3, §4

CDK5/p25 = target: T4, CDK5/p25 (Homo sapiens, UniProt Q00535); experiment: as above; format: biochemical; conditions: 10 uM ATP, histone H1 substrate
T4 construct: purchased Merck Millipore
T4 sequence (Q00535 whole entry): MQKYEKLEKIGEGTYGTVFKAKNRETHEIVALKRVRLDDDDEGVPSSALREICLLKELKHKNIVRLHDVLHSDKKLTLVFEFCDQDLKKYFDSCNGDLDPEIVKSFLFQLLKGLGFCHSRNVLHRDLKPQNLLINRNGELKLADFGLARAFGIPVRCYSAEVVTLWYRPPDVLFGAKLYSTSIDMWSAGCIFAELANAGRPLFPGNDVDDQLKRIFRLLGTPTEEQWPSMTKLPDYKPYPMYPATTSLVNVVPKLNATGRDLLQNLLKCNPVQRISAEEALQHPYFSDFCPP
T4 sequence (Q15078 99-307 partner limits assumed): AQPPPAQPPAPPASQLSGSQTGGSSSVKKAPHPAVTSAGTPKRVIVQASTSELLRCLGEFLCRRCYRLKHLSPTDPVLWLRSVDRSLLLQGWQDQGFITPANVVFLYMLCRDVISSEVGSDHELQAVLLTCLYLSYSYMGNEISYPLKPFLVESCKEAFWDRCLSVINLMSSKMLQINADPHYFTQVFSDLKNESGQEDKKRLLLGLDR
Description: as §3, §4

CDK1/cyclinB = target: T5, CDK1/cyclinB (Homo sapiens, UniProt P06493); experiment: as above; format: biochemical; conditions: 10 uM ATP, histone H1 substrate
T5 construct: purchased Merck Millipore
T5 sequence (P06493 whole entry): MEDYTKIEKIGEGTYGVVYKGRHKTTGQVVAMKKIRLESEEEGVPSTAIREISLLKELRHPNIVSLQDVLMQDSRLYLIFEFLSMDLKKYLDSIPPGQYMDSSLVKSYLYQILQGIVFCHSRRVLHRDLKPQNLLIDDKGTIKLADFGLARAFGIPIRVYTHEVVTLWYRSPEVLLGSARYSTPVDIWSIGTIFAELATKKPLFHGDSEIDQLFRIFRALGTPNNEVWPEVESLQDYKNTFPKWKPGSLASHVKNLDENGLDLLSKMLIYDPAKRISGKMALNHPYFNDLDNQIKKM
T5 sequence (P14635 whole entry partner): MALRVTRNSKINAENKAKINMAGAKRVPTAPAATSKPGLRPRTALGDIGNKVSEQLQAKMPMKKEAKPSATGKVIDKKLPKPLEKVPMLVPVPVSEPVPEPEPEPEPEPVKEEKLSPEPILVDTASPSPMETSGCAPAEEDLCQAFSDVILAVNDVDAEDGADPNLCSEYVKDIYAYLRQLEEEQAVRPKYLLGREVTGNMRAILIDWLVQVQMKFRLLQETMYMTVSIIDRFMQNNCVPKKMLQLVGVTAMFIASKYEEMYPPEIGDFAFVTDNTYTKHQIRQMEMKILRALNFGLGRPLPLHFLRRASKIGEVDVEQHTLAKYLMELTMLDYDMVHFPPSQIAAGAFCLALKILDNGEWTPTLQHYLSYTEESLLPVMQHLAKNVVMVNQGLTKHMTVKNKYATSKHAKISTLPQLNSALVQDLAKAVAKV
Description: as §3, §4

| Compound | GI50 (NCI-H23; Homo sapiens, NCI-H23, 72 h) [µM] | GI50 (HCT116; 72 hrs) [µM] | GI50 (T98G; Homo sapiens, T98G, 72 h) [µM] | GI50 (U-87MG; Homo sapiens, U-87 MG, 72 h) [µM] | GI50 (NCI-H23; 72 hrs) [µM] | GI50 (T98G; 72 hrs) [µM] | GI50 (A549; 72 hrs) [µM] | GI50 (U-87MG; 72 hrs) [µM] | GI50 (HCT116; Homo sapiens, HCT-116, 72 h) [µM] | further results |
| --- | --- | --- | --- | --- | --- | --- | --- | --- | --- | --- |
| CC(C)N1CCC(c2cc(-c3nc(-c4ccnc(N)c4F)ccc3O)nc(N)n2)CC1 [Example 37, 2′-amino-6-(2-amino-6-(1-isopropylpiperidin-4-yl)pyrimidin-4-yl)-3′-fluoro-[2,4′-bipyridin]-5-ol] | 0.06 | 0.01 | 0.03 | 0.01 |  |  |  |  |  | GI50 (A549; Homo sapiens, A549, 72 h): 0.02 µM |
| CC(C)N1CCC(c2cc(-c3nc(-c4ccnc(N)c4F)ccc3O)nc(N)n2)CC1 [Example 88, 2′-amino-6-(2-amino-6-(1-isopropylpiperidin-4-yl)pyrimidin-4-yl)-3′-fluoro-[2,4′-bipyridin]-5-ol 4hydrochloride] |  | 0.04 |  |  | 0.04 | 0.02 | 0.02 | 0.01 |  |  |
| CCCc1c(-c2nc(-c3ccnc(N)c3F)ccc2O)nc(N)nc1C1CCN(C(C)C)CC1 [Example 50, 2′-amino-6-(2-amino-6-(1-isopropylpiperidin-4-yl)-5-propylpyrimidin-4-yl)-3′-fluoro-[2,4′-bipyridin]-5-ol] | 0.16 |  | 0.13 | 0.07 |  |  | 0.15 |  | 0.04 |  |
| CCN1CCC(c2nc(N)nc(-c3nc(-c4ccnc(N)c4F)ccc3O)c2C)CC1 [Example 94, 2′-amino-6-(2-amino-6-(1-ethylpiperidin-4-yl)-5-methylpyrimidin-4-yl)-3′-fluoro-[2,4′-bipyridin]-5-ol 4hydrochloride] |  | 0.15 |  |  | 0.52 | 0.48 | 0.23 | 0.32 |  |  |
| CCCc1cnc(N)nc1-c1nc(-c2ccnc(N)c2F)ccc1O [Example 57, 2′-amino-6-(2-amino-5-propylpyrimidin-4-yl)-3′-fluoro-[2,4′-bipyridin]-5-ol] | 0.04 |  |  | 0.02 |  | 0.06 | 0.04 |  | 0.02 |  |
| CCCN1CCCC(c2cc(-c3nc(-c4ccnc(N)c4F)ccc3O)nc(N)n2)C1 (centres unmarked) [Example 91, 2′-amino-6-(2-amino-6-(1-propylpiperidin-3-yl)pyrimidin-4-yl)-3′-fluoro-[2,4′-bipyridin]-5-ol 4hydrochloride] |  | 0.02 |  |  | 0.05 | 0.07 | 0.03 | 0.03 |  |  |
| CCCN1CCC(c2nc(N)nc(-c3nc(-c4ccnc(N)c4F)ccc3O)c2C)CC1 [Example 95, 2′-amino-6-(2-amino-5-methyl-6-(1-propylpiperidin-4-yl)pyrimidin-4-yl)-3′-fluoro-[2,4′-bipyridin]-5-ol 4hydrochloride] |  | 0.06 |  |  | 0.15 | 0.16 | 0.08 | 0.1 |  |  |
| CCN1CCCC(c2cc(-c3nc(-c4ccnc(N)c4F)ccc3O)nc(N)n2)C1 (centres unmarked) [Example 39, 2′-amino-6-(2-amino-6-(1-ethylpiperidin-3-yl)pyrimidin-4-yl)-3′-fluoro-[2,4′-bipyridin]-5-ol] |  | 0.17 |  |  | 1.79 | 0.69 | 0.4 | 0.39 |  |  |
| CCN1CCC(c2cc(-c3nc(-c4ccnc(N)c4F)ccc3O)nc(N)n2)CC1 [Example 86, 2′-amino-6-(2-amino-6-(1-ethylpiperidin-4-yl)pyrimidin-4-yl)-3′-fluoro-[2,4′-bipyridin]-5-ol 4hydrochloride] |  | 0.01 |  |  | 0.05 | 0.19 | 0.02 | 0.03 |  |  |
| Cc1cc(-c2nc(-c3ccnc(N)c3F)ccc2O)nc(N)n1 [Example 24, 2′-amino-6-(2-amino-6-methylpyrimidin-4-yl)-3′-fluoro-[2,4′-bipyridin]-5-ol] |  |  |  |  |  |  |  |  | 0.02 | IC50 (CDK4/cyclinD1): 0.342 µM; IC50 (CDK6/cyclinD3): 0.0338 µM; IC50 (CDK2/cyclinE): 0.0009 µM; IC50 (CDK5/p25): 0.0007 µM; IC50 (CDK1/cyclinB): 0.0006 µM |
| CC(C)c1cnc(N)nc1-c1nc(-c2ccnc(N)c2F)ccc1O [Example 58] | 0.06 |  | 0.04 | 0.06 |  |  |  |  | 0.03 | GI50 (A549; Homo sapiens, A549, 72 h): 0.07 µM |
| CN1CCCC(c2cc(-c3nc(-c4ccnc(N)c4F)ccc3O)nc(N)n2)C1 (centres unmarked) [Example 38, 2′-amino-6-(2-amino-6-(1-methylpiperidin-3-yl)pyrimidin-4-yl)-3′-fluoro-[2,4′-bipyridin]-5-ol] | 0.02 |  | 0.02 | 0.004 |  |  |  |  | 0.002 | GI50 (A549; Homo sapiens, A549, 72 h): 0.005 µM |
| Nc1nc(-c2nc(-c3ccnc(N)c3F)ccc2O)cc(C2CCNCC2)n1 [Example 83, 2′-amino-6-(2-amino-6-(piperidin-4-yl)pyrimidin-4-yl)-3′-fluoro-[2,4′-bipyridin]-5-ol 4hydrochloride] |  | 0.03 |  |  | 1.18 | 0.15 | 0.12 | 0.09 |  |  |
| Cc1cnc(N)nc1-c1nc(-c2ccnc(N)c2F)ccc1O [Example 55, 2′-amino-6-(2-amino-5-methylpyrimidin-4-yl)-3′-fluoro-[2,4′-bipyridin]-5-ol] |  |  |  | 0.11 | 0.18 | 0.13 | 0.16 |  | 0.05 |  |
| CCN1CCC(c2cc(-c3nc(-c4ccnc(N)c4F)ccc3O)nc(N)n2)CC1 [Example 35, 2′-amino-6-(2-amino-6-(1-ethylpiperidin-4-yl)pyrimidin-4-yl)-3′-fluoro-[2,4′-bipyridin]-5-ol] | 0.06 |  | 0.21 | 0.03 |  |  |  |  | 0.01 | GI50 (A549; Homo sapiens, A549, 72 h): 0.02 µM |
| CC(C)N1CCCC(c2cc(-c3nc(-c4ccnc(N)c4F)ccc3O)nc(N)n2)C1 (centres unmarked) [Example 41, 2′-amino-6-(2-amino-6-(1-isopropylpiperidin-3-yl)pyrimidin-4-yl)-3′-fluoro-[2,4′-bipyridin]-5-ol] | 0.07 |  | 0.11 | 0.04 |  |  |  |  | 0.02 | GI50 (A549; Homo sapiens, A549, 72 h): 0.04 µM |
| CC(C)N1CCCC(c2cc(-c3nc(-c4ccnc(N)c4F)ccc3O)nc(N)n2)C1 (centres unmarked) [Example 92, 2′-amino-6-(2-amino-6-(1-isopropylpiperidin-3-yl)pyrimidin-4-yl)-3′-fluoro[2,4′-bipyridin]-5-ol 4hydrochloride] |  | 0.02 |  |  | 0.05 | 0.09 | 0.03 | 0.03 |  |  |
